In EP4813990A1, “COMPOUND FOR TREATING CANCER” (INNOLAKE BIOPHARMA (HANGZHOU) CO., LTD., priority 2023, dated 2025):
Like-named read-outs stand apart in the source and are kept apart here.

Tests used:
A1 receptor = A1 receptor (Homo sapiens, UniProt P30542); test: Adenosine receptor selectivity, A2aR compared with A1; assay type: binding
Source text: (§1) Meanwhile, ILB-2109 had high selectivity for A2aR (compared with A1, A2b and A3 receptors, the selectivity was 18.9 times, 40.7 times and 3424.7 times respectively).

A2b receptor = A2b receptor (Homo sapiens, UniProt P29275); test: Adenosine receptor selectivity, A2aR compared with A2b; assay type: binding
Source text: as §1

A3 receptor = A3 receptor (Homo sapiens, UniProt P0DMS8); test: Adenosine receptor selectivity, A2aR compared with A3; assay type: binding
Source text: as §1

Caco-2 cells = test: Caco-2 permeability; assay type: in vitro ADME
Plasma protein binding = assay type: in vitro ADME; details: one range given for CD-1 mice, Sprague-Dawley rats, Beagle dogs and cynomolgus monkeys
[1] = In vivo metabolism in cynomolgus monkeys (plasma profile); details: male and female monkeys
Source text: In in vivo metabolism experiments of cynomolgus monkeys, the relative abundance of parent drug ILB-2109 in plasma samples of male and female monkeys was more than 83%, which was the main component in plasma samples. ILB-2109 was mainly metabolized via oxidation, dehydrogenation and glucuronidation in monkey plasma.

[2] = Excretion of total radioactivity in intact rats; assay type: in vivo
Procedure: Excretion mainly occurred within 48 hours after administration, accounting for about 88.01% of the administered dose.

[3] = Excretion of total radioactivity in bile duct cannulated (BDC) rats; assay type: in vivo
CYP1A2 [4] = target: T1, CYP1A2 (Homo sapiens, UniProt P05177); test: Human liver microsome CYP inhibition (direct and time-dependent); assay type: in vitro ADME
T1 construct: In vitro human liver microsome tests; from tissue; host or cells: human liver microsomes
Source text: (§2) The non-dilution method was used to determine the time-dependent inhibitory effect of ILB-2109 on human liver microsomal cytochrome P450 isoenzymes (CYP1A2, CYP2B6, CYP2C8, CYP2C9, CYP2C19, CYP2D6 and CYP3A4). Generally, an IC50 shift multiple ≥1.5 was taken as the judgment standard for time-dependent inhibitors.

CYP2B6 [5] = target: T2, CYP2B6 (Homo sapiens, UniProt P20813); test: as above; assay type: in vitro ADME
T2 construct: In vitro human liver microsome tests; from tissue; host or cells: human liver microsomes
Source text: as §2

CYP2C19 = target: T3, CYP2C19 (Homo sapiens, UniProt P33261); test: as above; assay type: in vitro ADME
T3 construct: In vitro human liver microsome tests; from tissue; host or cells: human liver microsomes
Source text: as §2

CYP2C8 = target: T4, CYP2C8 (Homo sapiens, UniProt P10632); test: as above; assay type: in vitro ADME
T4 construct: In vitro human liver microsome tests; from tissue; host or cells: human liver microsomes
Source text: as §2

CYP2C9 = target: T5, CYP2C9 (Homo sapiens, UniProt P11712); test: as above; assay type: in vitro ADME
T5 construct: In vitro human liver microsome tests; from tissue; host or cells: human liver microsomes
Source text: as §2

CYP3A4 [6] = target: T6, CYP3A4 (Homo sapiens, UniProt P08684); test: as above; assay type: in vitro ADME; details: for IC50: human liver microsomes
T6 construct: In vitro human liver microsome tests; from tissue; host or cells: human liver microsomes
Source text: as §2

CYP1A2 [7] = test: In vitro hepatocyte induction assay; assay type: in vitro ADME
Source text: (§3) In vitro hepatocyte induction assay was used to evaluate the effect of ILB-2109 on the enzyme activity and gene expression level of cytochrome P450 isoenzymes CYP1A2, CYP2B6 and CYP3A4.

CYP2B6 [8] = test: In vitro hepatocyte induction assay; assay type: in vitro ADME
Source text: as §3

CYP3A4 [9] = test: In vitro hepatocyte induction assay; assay type: in vitro ADME; details: for induction, gene expression level: hepatocytes
Source text: as §3

[10] = Single-dose toxicity study in cynomolgus monkeys; details: cynomolgus monkey, in vivo, po, single intragastric administration within 24 h, observed 14 days, read-out: maximum tolerated dose (MTD)
Procedure: (§4) In accordance with the relevant requirements of the Good Laboratory Practice for Non-clinical Drug Studies issued by the National Medical Products Administration of the People's Republic of China, and following the test protocol and revisions, the safety pharmacology test, single-dose toxicity, genetic toxicity, etc. of ILB-2109 were explored.
Cynomolgus monkeys were given single intragastric administration of 0 (vehicle), 250, 500 and 1000 mg/kg ILB-2109 and observed continuously for 14 days after single administration. […] Within 30 min ~ 4 h after administration on the day of administration, mild vomiting (a small amount of food-like vomit) occurred in medium and high-dose groups. No abnormalities were found in body weight, food consumption, body temperature, respiration, electrocardiogram, blood routine, ophthalmic examination, clinical examination, bone marrow and gross anatomy. Under the test conditions, the maximum tolerated dose (MTD) of cynomolgus monkeys given single intragastric administration of ILB-2109 within 24 h was 1000 mg/kg. The test substance had effects on digestive system (gastrointestinal function, liver function).

[11] = 4-week repeated-dose toxicity test in rats; parameters: species or system SD rats; details: Sprague-Dawley, rat, in vivo
Procedure: as §4
SD rats were given continuous intragastric administration of ILB-2109 at doses of 0 (vehicle), 60, 200 and 600 mg/kg for 28 consecutive days. […] WBC and #LYMPH increased or tended to increase in medium and high-dose groups; GLU decreased or tended to decrease in medium and high-dose groups; CREA and UREA increased or tended to increase in female high-dose group; GLOB increased and A/G decreased in female animals of each dose group. […] All the above changes completely recovered during the recovery period. […] ILB-2109 may have toxic effects on digestive system (liver function), blood system (granulocyte series) and urinary system (renal function) of SD rats, which can be reversed at the end of the recovery period.

[12] = 0-168 hours after single oral administration
[13] = BDC rats, 0-72 hours after single oral administration
[14] = non-dilution method, IC50 shift multiple ≥1.5 as judgment standard
[15] = hepatocytes, 0.200, 2.00 or 20.0 µM

T6 sequence (P08684 2-503): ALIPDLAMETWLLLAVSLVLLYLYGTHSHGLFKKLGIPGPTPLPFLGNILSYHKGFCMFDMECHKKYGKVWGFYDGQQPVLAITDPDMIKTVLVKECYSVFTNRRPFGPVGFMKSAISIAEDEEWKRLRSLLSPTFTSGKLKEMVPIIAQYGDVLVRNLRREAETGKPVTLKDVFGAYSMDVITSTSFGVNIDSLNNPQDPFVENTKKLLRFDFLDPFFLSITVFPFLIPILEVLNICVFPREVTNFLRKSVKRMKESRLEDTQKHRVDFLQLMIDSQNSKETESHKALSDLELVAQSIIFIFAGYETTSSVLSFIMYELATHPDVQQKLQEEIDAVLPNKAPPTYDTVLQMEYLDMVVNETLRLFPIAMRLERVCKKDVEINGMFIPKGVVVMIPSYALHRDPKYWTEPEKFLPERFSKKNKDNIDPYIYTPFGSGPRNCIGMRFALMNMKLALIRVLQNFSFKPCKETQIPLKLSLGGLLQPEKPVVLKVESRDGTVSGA
T1 sequence (P05177 whole entry): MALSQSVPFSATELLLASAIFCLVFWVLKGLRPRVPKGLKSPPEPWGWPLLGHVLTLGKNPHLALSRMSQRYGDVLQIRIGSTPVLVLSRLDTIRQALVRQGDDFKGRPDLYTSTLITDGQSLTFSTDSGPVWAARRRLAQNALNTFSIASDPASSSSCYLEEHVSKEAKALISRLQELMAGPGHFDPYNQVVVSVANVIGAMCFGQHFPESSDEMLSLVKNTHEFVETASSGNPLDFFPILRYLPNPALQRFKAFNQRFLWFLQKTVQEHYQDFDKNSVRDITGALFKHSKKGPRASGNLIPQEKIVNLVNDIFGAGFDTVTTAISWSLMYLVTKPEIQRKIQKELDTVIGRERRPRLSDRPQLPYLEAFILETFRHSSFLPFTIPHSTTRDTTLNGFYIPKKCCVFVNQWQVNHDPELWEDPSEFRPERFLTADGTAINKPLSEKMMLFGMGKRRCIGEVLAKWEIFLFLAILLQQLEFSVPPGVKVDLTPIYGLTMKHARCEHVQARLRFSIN
T3 sequence (P33261 whole entry): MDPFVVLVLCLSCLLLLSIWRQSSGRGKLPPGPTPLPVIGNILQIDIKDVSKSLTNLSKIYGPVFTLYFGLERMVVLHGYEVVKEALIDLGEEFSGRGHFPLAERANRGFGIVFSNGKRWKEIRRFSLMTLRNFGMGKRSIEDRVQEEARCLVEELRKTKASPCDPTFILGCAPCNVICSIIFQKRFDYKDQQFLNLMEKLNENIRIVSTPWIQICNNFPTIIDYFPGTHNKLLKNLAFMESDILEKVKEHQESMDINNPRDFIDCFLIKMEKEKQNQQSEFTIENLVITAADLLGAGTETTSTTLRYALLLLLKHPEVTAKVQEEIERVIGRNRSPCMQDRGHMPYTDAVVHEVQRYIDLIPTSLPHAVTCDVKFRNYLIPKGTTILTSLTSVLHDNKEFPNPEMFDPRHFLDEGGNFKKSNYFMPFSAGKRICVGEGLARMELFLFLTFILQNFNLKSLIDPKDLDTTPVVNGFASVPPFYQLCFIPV
T5 sequence (P11712 whole entry): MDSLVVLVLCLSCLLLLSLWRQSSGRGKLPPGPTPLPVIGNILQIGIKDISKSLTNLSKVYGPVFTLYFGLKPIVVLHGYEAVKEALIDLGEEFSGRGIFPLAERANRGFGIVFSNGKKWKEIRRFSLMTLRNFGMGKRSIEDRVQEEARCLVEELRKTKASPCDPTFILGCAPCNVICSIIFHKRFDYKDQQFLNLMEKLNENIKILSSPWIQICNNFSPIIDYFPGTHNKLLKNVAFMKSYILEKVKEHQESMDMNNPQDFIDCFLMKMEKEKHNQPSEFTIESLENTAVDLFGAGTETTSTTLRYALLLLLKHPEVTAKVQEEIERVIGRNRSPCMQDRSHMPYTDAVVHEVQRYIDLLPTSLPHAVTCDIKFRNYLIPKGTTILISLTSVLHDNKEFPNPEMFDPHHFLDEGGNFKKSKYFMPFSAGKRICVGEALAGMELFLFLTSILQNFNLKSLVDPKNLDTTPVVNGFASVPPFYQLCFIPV
T4 sequence (P10632 whole entry): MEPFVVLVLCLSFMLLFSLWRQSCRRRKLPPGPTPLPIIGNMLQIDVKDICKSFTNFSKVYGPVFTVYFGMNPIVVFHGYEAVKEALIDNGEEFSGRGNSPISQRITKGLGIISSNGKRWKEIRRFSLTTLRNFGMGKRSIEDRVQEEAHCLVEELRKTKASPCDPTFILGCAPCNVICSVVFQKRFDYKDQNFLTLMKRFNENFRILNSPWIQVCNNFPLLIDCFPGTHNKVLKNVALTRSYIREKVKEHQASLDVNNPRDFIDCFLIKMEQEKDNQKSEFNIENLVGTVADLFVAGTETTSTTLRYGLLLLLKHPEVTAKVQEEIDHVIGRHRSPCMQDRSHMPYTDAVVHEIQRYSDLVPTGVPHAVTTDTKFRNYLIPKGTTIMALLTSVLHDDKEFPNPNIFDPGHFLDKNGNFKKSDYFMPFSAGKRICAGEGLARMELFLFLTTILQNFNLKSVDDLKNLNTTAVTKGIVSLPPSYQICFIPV
T2 sequence (P20813 whole entry): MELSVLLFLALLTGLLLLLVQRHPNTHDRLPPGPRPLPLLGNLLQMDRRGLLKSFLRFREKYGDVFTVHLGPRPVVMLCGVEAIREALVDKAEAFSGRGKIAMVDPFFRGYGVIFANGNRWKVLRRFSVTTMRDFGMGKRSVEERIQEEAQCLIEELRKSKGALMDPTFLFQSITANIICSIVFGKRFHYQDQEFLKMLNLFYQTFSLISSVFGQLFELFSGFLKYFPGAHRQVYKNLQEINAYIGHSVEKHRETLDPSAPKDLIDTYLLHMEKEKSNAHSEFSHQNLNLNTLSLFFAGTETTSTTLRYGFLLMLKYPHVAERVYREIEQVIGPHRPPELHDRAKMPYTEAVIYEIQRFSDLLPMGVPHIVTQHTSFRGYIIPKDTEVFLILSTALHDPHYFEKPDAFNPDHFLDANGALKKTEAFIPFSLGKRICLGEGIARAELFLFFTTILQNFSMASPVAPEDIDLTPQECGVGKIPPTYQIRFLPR
Chain of A1 receptor (P30542 whole entry): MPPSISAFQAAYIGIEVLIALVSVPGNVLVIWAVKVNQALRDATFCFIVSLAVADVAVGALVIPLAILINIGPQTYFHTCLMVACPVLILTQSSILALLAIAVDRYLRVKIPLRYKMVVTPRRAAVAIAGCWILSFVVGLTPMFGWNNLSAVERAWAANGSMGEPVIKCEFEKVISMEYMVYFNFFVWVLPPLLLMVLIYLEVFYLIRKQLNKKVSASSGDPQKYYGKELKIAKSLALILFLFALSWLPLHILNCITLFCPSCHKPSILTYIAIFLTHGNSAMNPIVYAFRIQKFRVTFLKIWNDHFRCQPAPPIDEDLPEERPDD
Chain of A3 receptor (P0DMS8 whole entry): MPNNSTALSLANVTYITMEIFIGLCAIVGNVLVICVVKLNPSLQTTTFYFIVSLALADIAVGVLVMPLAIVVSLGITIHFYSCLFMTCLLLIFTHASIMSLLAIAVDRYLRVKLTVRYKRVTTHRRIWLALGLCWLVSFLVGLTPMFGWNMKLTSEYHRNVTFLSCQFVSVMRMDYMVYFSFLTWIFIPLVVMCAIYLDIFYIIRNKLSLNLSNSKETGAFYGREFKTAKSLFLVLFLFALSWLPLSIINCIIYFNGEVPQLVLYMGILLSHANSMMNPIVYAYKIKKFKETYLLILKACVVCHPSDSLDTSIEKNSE
Chain of A2b receptor (P29275 whole entry): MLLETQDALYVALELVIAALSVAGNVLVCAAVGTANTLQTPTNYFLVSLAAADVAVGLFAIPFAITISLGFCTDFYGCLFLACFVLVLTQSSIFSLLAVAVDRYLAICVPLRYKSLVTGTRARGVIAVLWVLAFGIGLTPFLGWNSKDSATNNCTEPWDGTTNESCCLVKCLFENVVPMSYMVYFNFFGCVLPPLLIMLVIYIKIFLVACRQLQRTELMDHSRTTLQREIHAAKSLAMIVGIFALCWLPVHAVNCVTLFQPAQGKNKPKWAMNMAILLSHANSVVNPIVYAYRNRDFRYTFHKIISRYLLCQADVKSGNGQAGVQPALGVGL

Which “selectivity for A2aR compared with A1 receptor” value (A1 receptor) does the source give for `Cc1cc(-c2c(-c3ccccc3)nc(N)n3nc(CO)nc23)cc(C(F)(F)F)n1` [ILB-2109] here?
Its value is 18.9 times.

And the “selectivity for A2aR compared with A2b receptor” value (A2b receptor)?
Its value is 40.7 times.

And the “selectivity for A2aR compared with A3 receptor” value (A3 receptor)?
The value was 3424.7 times.

And the efflux transporter substrate (Caco-2 cells; Caco-2 cells)?
Its efflux transporter substrate is “most likely a substrate of efflux transporters”.

What about the “permeability in Caco-2 cells” value (Caco-2 cells; according to existing classification standards) of the same compound?
The value was “high permeability”.

What about the “binding rate in plasma” value (Plasma protein binding) of the same compound?
The value was 87.3%-95.0%.

What about the “relative abundance of parent drug in plasma samples” value [1] of the same compound?
The value was “more than 83%”.

What about the “average of total radioactivity recovery” value [2, 12] of the same compound?
Its value is 91.74%.

What about the “cage washing and cleaning fluid, share of the administered dose” value [2, 12] of the same compound?
Its value is 2.75%.

What about the “feces, share of the administered dose” value [2, 12] of the same compound?
The value was 75.17%.

And the “total urinary excretion, share of the administered dose” value [2, 12]?
The value was 13.81%.

What about the “excretion within 48 hours, share of the administered dose” value ([2]; within 48 hours after administration) of the same compound?
Its value is “about 88.01%”.

And the “average of total radioactivity recovery” value [3, 13]?
The value was 93.63%.

And the “cage washing and cleaning fluid, share of the administered dose” value [3, 13]?
The value was 0.85%.

What about the “feces, share of the administered dose” value [3, 13] of the same compound?
The value was 14.45%.

And the “total biliary excretion, share of the administered dose” value [3, 13]?
Its value is 66.17%.

What about the “urine, share of the administered dose” value [3, 13] of the same compound?
The value was 12.16%.

What about the oral absorption rate ([3]; from total radioactive excretion of bile and urine in BDC rats) of the same compound?
The oral absorption rate was “at least 78.33%”.

What about the IC50 (CYP1A2 [4]; human liver microsomes) of the same compound?
Its IC50 is over 100 µM.

And the time-dependent inhibitory effect (CYP1A2 [4]; [14])?
The time-dependent inhibitory effect was “no time-dependent inhibitory effect”.

And the IC50 (CYP2B6 [5]; human liver microsomes)?
The IC50 was over 100 µM.

And the time-dependent inhibitory effect (CYP2B6 [5]; [14])?
The time-dependent inhibitory effect was “no time-dependent inhibitory effect”.

And the IC50 (CYP2C19; human liver microsomes)?
Its IC50 is 91.6 µM.

What about the time-dependent inhibitory effect (CYP2C19; [14]) of the same compound?
The time-dependent inhibitory effect was “no time-dependent inhibitory effect”.

What about the IC50 (CYP2C8; human liver microsomes) of the same compound?
Its IC50 is 33.9 µM.

What about the time-dependent inhibitory effect (CYP2C8; [14]) of the same compound?
Its time-dependent inhibitory effect is “no time-dependent inhibitory effect”.

And the IC50 (CYP2C9; human liver microsomes)?
Its IC50 is 57.2 µM.

And the time-dependent inhibitory effect (CYP2C9; [14])?
Its time-dependent inhibitory effect is “no time-dependent inhibitory effect”.

And the IC50 (CYP3A4 [6]; midazolam as substrate)?
The IC50 was over 100 µM.

And the IC50 (CYP3A4 [6]; testosterone as substrate)?
The IC50 was over 100 µM.

And the time-dependent inhibitory effect (CYP3A4 [6]; [14])?
Its time-dependent inhibitory effect is “no time-dependent inhibitory effect”.

And the “induction, gene expression level” value (CYP1A2 [7]; hepatocytes, 20.0 µM, Donor 1)?
The value was “inducer”.

What about the “induction, enzyme activity” value (CYP1A2 [7]; [15]) of the same compound?
Its value is “not an inducer”.

What about the “induction, gene expression level” value (CYP2B6 [8]; hepatocytes, 20.0 µM, Donor 1) of the same compound?
The value was “inducer”.

What about the “induction, enzyme activity” value (CYP2B6 [8]; [15]) of the same compound?
Its value is “not an inducer”.

What about the “induction, gene expression level” value (CYP3A4 [9]; 2.00 µM, Donor 1 and Donor 3) of the same compound?
The value was “inducer”.

And the “induction, gene expression level” value (CYP3A4 [9]; 20.0 µM, Donor 1, 2 and 3)?
The value was “inducer”.

And the “induction, enzyme activity” value (CYP3A4 [9]; [15])?
Its value is “not an inducer”.

And the MTD at 14 days [10]?
The MTD at 14 days was 1000 mg/kg.

What about the AUC(0-t) ([11]; oral, female SD rats, 600 mg/kg (MTD), 4-week study, read-out: AUC0-24h) of the same compound?
The AUC(0-t) was 725 µg·h/mL.

What about the Cmax ([11]; oral, female SD rats, 600 mg/kg (MTD), 4-week study, read-out: Cmax) of the same compound?
Its Cmax is 69400 ng/mL.

And the AUC(0-t) ([11]; oral, male SD rats, 600 mg/kg (MTD), 4-week study, read-out: AUC0-24h)?
The AUC(0-t) was 481 µg·h/mL.

And the Cmax ([11]; oral, male SD rats, 600 mg/kg (MTD), 4-week study, read-out: Cmax)?
The Cmax was 36300 ng/mL.

What about the NOAEL at 28 days ([11]; both sexes, po) of the same compound?
Its NOAEL at 28 days is 60 mg/kg.

What about the MTD at 28 days ([11]; both sexes, po, SD rats, intragastric, 28 consecutive days) of the same compound?
Its MTD at 28 days is 600 mg/kg.

What about the AUC(0-t) ([11]; female, 60 mg/kg) of the same compound?
The AUC(0-t) was 296 µg·h/mL.

And the Cmax ([11]; female, 60 mg/kg)?
The Cmax was 22200 ng/mL.

And the AUC(0-t) ([11]; male, 60 mg/kg)?
Its AUC(0-t) is 114 µg·h/mL.

And the Cmax ([11]; male, 60 mg/kg)?
The Cmax was 15900 ng/mL.
